Data as given in paper PMC5399312 (Journal of Experimental & Clinical Cancer Research : CR, 2017).

Experiments:
[1] = biological target: T1, HK2 (Homo sapiens, UniProt P52789); experiment: In vitro enzyme inhibition assay (G6P-DH coupled, NADH 340 nm); assay type: biochemical; conditions: for Vmax: Lineweaver-Burk
T1 construct: made in house; host or cells: E. coli BL21 (DE3)
T1 sequence (P52789 1-917): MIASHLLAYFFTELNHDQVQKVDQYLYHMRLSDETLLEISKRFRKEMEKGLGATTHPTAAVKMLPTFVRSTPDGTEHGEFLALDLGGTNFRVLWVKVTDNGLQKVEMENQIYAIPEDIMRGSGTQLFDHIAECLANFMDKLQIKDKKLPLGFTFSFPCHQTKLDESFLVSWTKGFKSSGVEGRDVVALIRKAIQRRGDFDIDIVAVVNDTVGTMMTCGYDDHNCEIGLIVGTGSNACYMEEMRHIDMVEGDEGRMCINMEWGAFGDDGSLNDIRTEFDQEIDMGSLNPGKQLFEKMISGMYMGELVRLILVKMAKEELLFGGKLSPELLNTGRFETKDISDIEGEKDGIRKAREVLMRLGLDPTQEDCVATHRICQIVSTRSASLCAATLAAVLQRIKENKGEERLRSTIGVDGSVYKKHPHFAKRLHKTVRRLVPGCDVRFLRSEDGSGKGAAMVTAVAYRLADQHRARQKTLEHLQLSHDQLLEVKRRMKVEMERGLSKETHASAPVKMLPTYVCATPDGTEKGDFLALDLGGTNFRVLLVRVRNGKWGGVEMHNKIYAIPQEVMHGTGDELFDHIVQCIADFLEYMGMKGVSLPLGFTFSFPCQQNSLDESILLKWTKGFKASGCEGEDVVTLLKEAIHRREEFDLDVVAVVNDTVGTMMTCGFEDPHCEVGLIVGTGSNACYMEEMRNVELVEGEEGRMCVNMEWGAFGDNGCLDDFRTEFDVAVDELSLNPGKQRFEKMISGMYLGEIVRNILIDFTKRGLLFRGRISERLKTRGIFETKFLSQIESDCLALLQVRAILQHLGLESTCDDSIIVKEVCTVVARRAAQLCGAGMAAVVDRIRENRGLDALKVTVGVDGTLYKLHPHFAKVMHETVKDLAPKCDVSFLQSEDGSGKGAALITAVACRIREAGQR

[2] = test system: SW480 cells; experiment: Glucose uptake assay; assay type: cell-based, human; conditions: 48 h; versus untreated or Met treated control
Procedure: The Glucose Assay Kit (Rsbio, Shanghai, China) was used to analyse the glucose uptake. After 48 h drug treatment, media was collected and diluted within water. The amount of glucose in the media was then detected. Glucose uptake was determined by subtracting the amount of glucose in each sample from the total amount of glucose in the media (without cells). Met was used as a standard control in this assay.

[3] = test system: SW480 cells; experiment: Measurement of intracellular ATP level; assay type: cell-based, human; conditions: 75, 150 and 300 μM, 48 h
Procedure: After centrifugation, supernatants were assayed by ATP assay kit (KeyGen, Nanjing, China) to determine the generation of ATP. The assay was determined using the plate reader (Synergy HT, BioTek, USA) at 636 nm.

[4] = test system: SW480 xenograft tumor tissues; experiment: TUNEL and H&E staining assay; assay type: in vivo; conditions: versus vehicle control
Procedure: Apoptosis of tumor tissues was detected by terminal deoxynucleotidyl transferase (TdT)-mediated dUTP-biotin nick end labeling (TUNEL) stain, using an In Situ Cell Death Detection Kit (Roche, Switzerland). The hematoxylin-eosin (H&E) staining was performed to observe the pathological changes in different groups.

[5] = test system: p-AMPKα in SW480 cells; experiment: Western blot analysis; assay type: cell-based, human; conditions: 75, 150 and 300 μM
Procedure: The harvested cells were lysed with radioimmunoprecipitation assay (RIPA) buffer (Beyotime, China). Insoluble debris was removed by centrifugation and the concentration of total proteins was determined using BCA Protein Assay Kit (Beyotime, China). Then lysate protein (20-40 μg) was subjected to 10% SDS-PAGE and electrophoretically transferred to polyvinylidene difluoride membranes (PVDF) (Millipore, USA). […] Protein bands were visualized using an enhanced chemiluminescence reagent (ECL Plus) (GE Healthcare, USA) after hybridization with a HRP conjugated secondary antibody. All experiments were performed in triplicate and analyzed by optical density.

[6] = biological target: T2, HK1 (Homo sapiens, UniProt P19367); experiment: In vitro enzyme inhibition assay (G6P-DH coupled, NADH 340 nm); assay type: biochemical; conditions: recombinant HK1
T2 construct: purchased Shanghai yuanye Bio-Technology Co., Ltd (China)
T2 sequence (P19367 1-917): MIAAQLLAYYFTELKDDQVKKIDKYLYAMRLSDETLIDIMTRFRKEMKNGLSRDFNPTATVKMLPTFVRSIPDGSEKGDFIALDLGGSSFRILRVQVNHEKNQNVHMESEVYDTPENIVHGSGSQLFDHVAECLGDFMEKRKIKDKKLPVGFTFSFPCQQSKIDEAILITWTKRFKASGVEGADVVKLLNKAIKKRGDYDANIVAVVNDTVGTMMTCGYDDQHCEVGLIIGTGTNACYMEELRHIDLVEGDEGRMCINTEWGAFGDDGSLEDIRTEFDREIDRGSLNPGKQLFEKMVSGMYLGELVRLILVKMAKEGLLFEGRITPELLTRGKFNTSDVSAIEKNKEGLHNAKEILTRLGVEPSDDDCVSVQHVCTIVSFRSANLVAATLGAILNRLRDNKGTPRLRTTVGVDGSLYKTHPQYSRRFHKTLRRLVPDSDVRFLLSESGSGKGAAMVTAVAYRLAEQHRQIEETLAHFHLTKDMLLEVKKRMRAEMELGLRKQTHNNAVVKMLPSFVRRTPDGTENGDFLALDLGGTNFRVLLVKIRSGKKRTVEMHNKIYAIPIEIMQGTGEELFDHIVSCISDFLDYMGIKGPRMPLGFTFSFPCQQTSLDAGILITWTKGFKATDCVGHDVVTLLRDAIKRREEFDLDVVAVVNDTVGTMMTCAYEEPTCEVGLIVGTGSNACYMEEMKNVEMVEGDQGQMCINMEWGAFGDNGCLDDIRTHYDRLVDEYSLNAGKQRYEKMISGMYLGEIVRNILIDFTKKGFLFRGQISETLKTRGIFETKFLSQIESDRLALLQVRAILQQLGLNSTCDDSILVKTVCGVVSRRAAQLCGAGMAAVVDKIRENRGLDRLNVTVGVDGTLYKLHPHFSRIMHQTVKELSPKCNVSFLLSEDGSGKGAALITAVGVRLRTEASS
Procedure: (§1) Then 85 μL assay mix containing 100 mM Tris HCl pH 8.0, 5 mM MgCl2, 200 mM Glucose, 0.8 mM ATP, 1 mM NAD^+, 0.25 Units of G6P-DH, was added.

[7] = biological target: T1, HK2; experiment: as above; assay type: biochemical; conditions: recombinant HK2; n.i means no enzyme inhibition; read-out: Enzyme IC50
Procedure: as §1

Work on `NC(CO)C(=O)NNCc1ccc(O)c(O)c1O` (stereo not shown) [Benz, Benserazide] yielded a Vmax ([1]; Benz 5 μM) of 0.037 OD/min, a Vmax ([1]; Benz 10 μM) of 0.029 OD/min and a Vmax ([1]; Benz 20 μM) of 0.018 OD/min. The mechanism of inhibition ([1]; versus glucose) was “combined mechanism of both competitive and noncompetitive binding”, the glucose uptake [2] was “significantly lower” and the “intracellular ATP level” value [3] was “reduced”. The “tumor apoptosis and pathological changes (TUNEL, H&E)” value [4] was “induced tumor apoptosis and pathological changes”, the “phosphorylation of AMPKα” value [5] was “increased” and the IC50 [6] was 25.13 ± 0.24 µM. For the same molecule, the IC50 [7] was 5.52 ± 0.17 µM.
